Patent publication US20120107888A1, “MODULATION OF FERMENTATION PRODUCTS THROUGH VITAMIN SUPPLEMENTATION” (Qteros, Inc., priority 2011, published 2012)

System: C. phytofermentans
Details: basal medium; ethanol production from pretreated corn stover
Method: To examine the effect of individual nutrients (e.g., vitamins or amino acids) on the growth and/or ethanol production of C. phytofermentans, complex nutrients such as yeast extract were reduced to a minimal concentration that will permit sub-optimal growth. Each specific nutrient is added in a titration of increasing amount until a “saturation” of effect is observed.
Corn Stover, Mono and Dibasic Potassium Phosphate and Sodium Chloride were sterilized by autoclaving and the remaining components were added aseptically to each fermentation flask. DBY and CSP were separately prepared each as 100 g/L stocks and autoclaved.
All solutions and materials were degassed prior to use. Prior to inoculation, all flasks receive a sterile addition of commercial cellulases (from Novozymes) consisting of (per 100 mL medium): 0.25 mL Cat# NS50013 and 0.83 mL of diluted (1/10 in water) Cat# NS22002. […]
Following inoculation, flasks were placed in shaking fermenters at 35° C. with agitation at 175 rpm and sampled daily. […] Samples were analyzed for sugars (cellobiose, xylose, arabinose, and glucose) and fermentation products (formic, lactic, and acetic acids and ethanol) using HPLC.

O=C(O)c1cccnc1 [nicotinic acid, Nicotinic acid]
nicotinic acid supplementation above which a saturation effect is seen: > 10 mg/L
